# Measured values as given in PubChem BioAssay AID1963975 (Molecular Pharmacology Branch, DTP, NCI, 2024).
# System: 624824-186-R-J2-PDC multicell spheroids, viability
# Assay: Anticancer human tumor 624824-186-R-J2-PDC patient-derived colon adenocarcinoma cell line growth inhibition [PI3K]
# Conditions: for IC50: curve of first compound; for viability, T/C: stronger effect = lower value
# How it was run: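 We assembled tumor spheroids that included a stromal compartment of HUVEC and MSCs, then exposed them to targeted agents alone and together with PI3K pathway inhibitors. Concentration series descended by half-log from clinically achievable Cmax levels. Viability served as the endpoint.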
# [1] = second compound 0.00316 µM, first compound 0.0316 µM
# [2] = second compound 0.00316 µM, first compound 0.1 µM
# [3] = second compound 0.00316 µM, first compound 0.316 µM
# [4] = second compound 0.00316 µM, first compound 1 µM
# [5] = second compound 0.01 µM, first compound 0.0316 µM
# [6] = second compound 0.01 µM, first compound 0.1 µM
# [7] = second compound 0.01 µM, first compound 0.316 µM
# [8] = second compound 0.01 µM, first compound 1 µM
# [9] = second compound 0.0316 µM, first compound 0.0316 µM
# [10] = second compound 0.0316 µM, first compound 0.1 µM
# [11] = second compound 0.0316 µM, first compound 0.316 µM
# [12] = second compound 0.0316 µM, first compound 1 µM
# [13] = second compound 0.1 µM, first compound 0.0316 µM
# [14] = second compound 0.1 µM, first compound 0.1 µM
# [15] = second compound 0.1 µM, first compound 0.316 µM
# [16] = second compound 0.1 µM, first compound 1 µM
# [17] = second compound 0.316 µM, first compound 0.0316 µM
# [18] = second compound 0.316 µM, first compound 0.1 µM
# [19] = second compound 0.316 µM, first compound 0.316 µM
# [20] = second compound 0.316 µM, first compound 1 µM
# [21] = second compound 1 µM, first compound 0.0316 µM
# [22] = second compound 1 µM, first compound 0.1 µM
# [23] = second compound 1 µM, first compound 0.316 µM
# [24] = second compound 1 µM, first compound 1 µM
# [25] = second compound 0.00316 µM, first compound 3.16 µM
# [26] = second compound 0.00316 µM, first compound 10 µM
# [27] = second compound 0.01 µM, first compound 3.16 µM
# [28] = second compound 0.01 µM, first compound 10 µM
# [29] = second compound 0.0316 µM, first compound 3.16 µM
# [30] = second compound 0.0316 µM, first compound 10 µM
# [31] = second compound 0.1 µM, first compound 3.16 µM
# [32] = second compound 0.1 µM, first compound 10 µM
# [33] = second compound 0.316 µM, first compound 3.16 µM
# [34] = second compound 0.316 µM, first compound 10 µM
# [35] = second compound 1 µM, first compound 3.16 µM
# [36] = second compound 1 µM, first compound 10 µM
# 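Also: spheroids exposed to agents for 7 days before viability read.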
# 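For viability, T/C in this document: 100% = DMSO vehicle treated spheroids.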
smiles,measurement,setting,value
CCN1CCN(Cc2ccc(Nc3ncc(F)c(-c4cc(F)c5nc(C)n(C(C)C)c5c4)n3)nc2)CC1 + COc1c(OCCCN2CCOCC2)ccc2c3n(c(=NC(=O)c4cnc(N)nc4)nc12)CCN3,IC50,second compound 0.00316 µM,> 1000 nM
same,IC50,second compound 0.01 µM,> 1000 nM
same,IC50,second compound 0.0316 µM,> 1000 nM
same,IC50,second compound 0.1 µM,> 1000 nM
same,IC50,second compound 0.316 µM,> 1000 nM
same,IC50,second compound 1 µM,> 1000 nM
same,"viability, T/C","second compound 0.00316 µM, first compound 0.00316 µM",94.1%
same,"viability, T/C","second compound 0.00316 µM, first compound 0.01 µM",90.4%
same,"viability, T/C",[1],107%
same,"viability, T/C",[2],76.5%
same,"viability, T/C",[3],89.4%
same,"viability, T/C",[4],106%
same,"viability, T/C","second compound 0.01 µM, first compound 0.00316 µM",120%
same,"viability, T/C","second compound 0.01 µM, first compound 0.01 µM",73.7%
same,"viability, T/C",[5],78.7%
same,"viability, T/C",[6],75.9%
same,"viability, T/C",[7],81.7%
same,"viability, T/C",[8],94.6%
same,"viability, T/C","second compound 0.0316 µM, first compound 0.00316 µM",91.8%
same,"viability, T/C","second compound 0.0316 µM, first compound 0.01 µM",99.1%
same,"viability, T/C",[9],75.3%
same,"viability, T/C",[10],66.9%
same,"viability, T/C",[11],80.5%
same,"viability, T/C",[12],89.9%
same,"viability, T/C","second compound 0.1 µM, first compound 0.00316 µM",81.1%
same,"viability, T/C","second compound 0.1 µM, first compound 0.01 µM",63.4%
same,"viability, T/C",[13],64.6%
same,"viability, T/C",[14],54.2%
same,"viability, T/C",[15],68.2%
same,"viability, T/C",[16],83.8%
same,"viability, T/C","second compound 0.316 µM, first compound 0.00316 µM",69.1%
same,"viability, T/C","second compound 0.316 µM, first compound 0.01 µM",57.6%
same,"viability, T/C",[17],58.9%
same,"viability, T/C",[18],58.9%
same,"viability, T/C",[19],69.4%
same,"viability, T/C",[20],91.8%
same,"viability, T/C","second compound 1 µM, first compound 0.00316 µM",64.2%
same,"viability, T/C","second compound 1 µM, first compound 0.01 µM",56.9%
same,"viability, T/C",[21],61.4%
same,"viability, T/C",[22],62.9%
same,"viability, T/C",[23],72.9%
same,"viability, T/C",[24],88%
Cn1ncc(Cl)c1-c1cc(C(=O)NC(CN)Cc2cccc(F)c2)sc1Cl (stereo unspecified) + COc1c(OCCCN2CCOCC2)ccc2c3n(c(=NC(=O)c4cnc(N)nc4)nc12)CCN3,IC50,second compound 0.00316 µM,> 10000 nM
same,IC50,second compound 0.01 µM,8260 nM
same,IC50,second compound 0.0316 µM,8190 nM
same,IC50,second compound 0.1 µM,7470 nM
same,IC50,second compound 0.316 µM,5310 nM
same,IC50,second compound 1 µM,4550 nM
same,"viability, T/C",[1],86.6%
same,"viability, T/C",[2],72%
same,"viability, T/C",[3],90.8%
same,"viability, T/C",[4],87.7%
same,"viability, T/C",[25],72.7%
same,"viability, T/C",[26],50%
same,"viability, T/C",[5],118%
same,"viability, T/C",[6],81.2%
same,"viability, T/C",[7],93.7%
same,"viability, T/C",[8],81.6%
same,"viability, T/C",[27],62.6%
same,"viability, T/C",[28],45.5%
same,"viability, T/C",[9],86.1%
same,"viability, T/C",[10],85.5%
same,"viability, T/C",[11],89.2%
same,"viability, T/C",[12],74%
same,"viability, T/C",[29],71%
same,"viability, T/C",[30],45.4%
same,"viability, T/C",[13],78.2%
same,"viability, T/C",[14],81.3%
same,"viability, T/C",[15],68.3%
same,"viability, T/C",[16],69.2%
same,"viability, T/C",[31],64.7%
same,"viability, T/C",[32],44.9%
same,"viability, T/C",[17],80.9%
same,"viability, T/C",[18],66.6%
same,"viability, T/C",[19],64.7%
same,"viability, T/C",[20],66.9%
same,"viability, T/C",[33],63.4%
same,"viability, T/C",[34],36.3%
same,"viability, T/C",[21],68.5%
same,"viability, T/C",[22],58.3%
same,"viability, T/C",[23],61.6%
same,"viability, T/C",[24],57.9%
same,"viability, T/C",[35],57.8%
same,"viability, T/C",[36],35.8%
Cn1nccc1Nc1nccc(-c2ccn(C(CO)c3ccc(Cl)c(F)c3)c(=O)c2)n1 (stereo unspecified) + COc1c(OCCCN2CCOCC2)ccc2c3n(c(=NC(=O)c4cnc(N)nc4)nc12)CCN3,IC50,second compound 0.00316 µM,> 10000 nM
same,IC50,second compound 0.01 µM,> 10000 nM
same,IC50,second compound 0.0316 µM,370 nM
same,IC50,second compound 0.1 µM,138 nM
same,IC50,second compound 0.316 µM,53.5 nM
same,IC50,second compound 1 µM,37.4 nM
same,"viability, T/C",[1],102%
same,"viability, T/C",[2],86.5%
same,"viability, T/C",[3],78.2%
same,"viability, T/C",[4],75.5%
same,"viability, T/C",[25],82.7%
same,"viability, T/C",[26],81.2%
same,"viability, T/C",[5],102%
same,"viability, T/C",[6],71.9%
same,"viability, T/C",[7],74.2%
same,"viability, T/C",[8],67%
same,"viability, T/C",[27],66.7%
same,"viability, T/C",[28],50.5%
same,"viability, T/C",[9],85.7%
same,"viability, T/C",[10],59%
same,"viability, T/C",[11],58.9%
same,"viability, T/C",[12],37.1%
same,"viability, T/C",[29],33.6%
same,"viability, T/C",[30],26.5%
same,"viability, T/C",[13],69.5%
same,"viability, T/C",[14],53.3%
same,"viability, T/C",[15],39.1%
same,"viability, T/C",[16],30.9%
same,"viability, T/C",[31],26.6%
same,"viability, T/C",[32],15.6%
same,"viability, T/C",[17],55.3%
same,"viability, T/C",[18],42.7%
same,"viability, T/C",[19],36.3%
same,"viability, T/C",[20],22.8%
same,"viability, T/C",[33],15.1%
same,"viability, T/C",[34],11.8%
same,"viability, T/C",[21],51.5%
same,"viability, T/C",[22],42.9%
same,"viability, T/C",[23],36.8%
same,"viability, T/C",[24],26.5%
same,"viability, T/C",[35],14.9%
same,"viability, T/C",[36],7.14%
